Where two headings read alike, the source gives them in different places.
What was measured:
Assay type in all cases: cell-based
BCL-XL = molecular target: T1, BCL-XL (Homo sapiens, UniProt Q07817); assay: Bcl-xL ELISA degradation in MOLT-4 cells, 6 h; conditions: for DC50: read-out: Bcl-xL ELISA in MOLT-4 degradation 6 h: Mean external-Abs DC50
T1 construct: endogenous in cells; host or cells: MOLT-4
Procedure: The letter codes for BCL-XL DC50 include: A (<0.01 μM); B (0.01-0.1 μM); C (>[…]); D (>0.5-1.0 μM); and E (>1.0 μM). The letter codes for Dmax % include A (>75%); B (50 to 75%); C (<50%).

MOLT-4 cells = assay: CTG (CellTiter-Glo) cell viability assay, MOLT-4; conditions: Homo sapiens, 3 day incubation, read-out: CTG Cell Viability Assay - MOLT-4 3 day: Average external-IC50
Method in brief: (§1)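 10,000 cells/well; 9 doses, 1:3 from 10 μM top; 0.2% DMSO; 3 d, 37 °C, 5% CO2; CTG luminescence; IC50 via 3-parameter logistic fit. Letter bins differ: Caki-2 C/D cut at 10.0 μM, MOLT-4 at 3.0 μM.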

Caki-2 cells = assay: CTG (CellTiter-Glo) cell viability assay, Caki-2; conditions: Homo sapiens, 72 h, 3 day incubation, read-out: CTG Chempartner - Caki-2 3 day: Average external-IC50
Method in brief: as §1

T1 sequence (Q07817 whole entry): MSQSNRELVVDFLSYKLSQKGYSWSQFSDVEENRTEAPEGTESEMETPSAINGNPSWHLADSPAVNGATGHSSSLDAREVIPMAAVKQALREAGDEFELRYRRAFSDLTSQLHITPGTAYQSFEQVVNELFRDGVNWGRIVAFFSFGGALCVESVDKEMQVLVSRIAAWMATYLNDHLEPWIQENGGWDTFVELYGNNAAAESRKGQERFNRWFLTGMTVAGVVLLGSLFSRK

Compound	Dmax (BCL-XL)	DC50 (BCL-XL)	IC50 (MOLT-4 cells; MOLT-4, 72 h)	IC50 (Caki-2 cells)	IC50 (MOLT-4 cells; 72 h)
Cc1ncsc1-c1ccc([C@H](C)NC(=O)[C@@H]2C[C@@H](O)CN2C(=O)[C@@H](NC(=O)C2CCN(c3ccc(S(=O)(=O)NCc4nc(N5CCc6cccc(C(=O)Nc7nc8ccccc8s7)c6C5)ccc4-c4cnn(CC5CCCCC5)c4C)cc3)CC2)C(C)(C)C)cc1 [I-324]	< 50%	> 1 µM	> 3 µM	> 10 µM	–
C#Cc1ccc(CNC(=O)[C@@H]2C[C@@H](O)CN2C(=O)[C@@H](NC(=O)CCc2ccc(S(=O)(=O)NC(=O)c3nc(N(C)c4cc(C)c(Nc5nc6ccccc6s5)nn4)ccc3-c3cnn(CC(C)C)c3C)cc2)C(C)(C)C)cc1 [I-326]	< 50%	> 1 µM	> 3 µM	> 10 µM	–
Cc1ncsc1-c1ccc(CNC(=O)[C@@H]2C[C@@H](O)CN2C(=O)[C@@H](NC(=O)COc2ccc(S(=O)(=O)NC(=O)c3nc(N4CCc5cccc(C(=O)Nc6nc7ccccc7s6)c5C4)ccc3-c3cnn(CC4CCCCC4)c3C)cc2)C(C)(C)C)cc1 [I-327]	> 75%	0.01 to 0.1 µM	< 0.1 µM	1 to 10 µM	–
Cc1ncsc1-c1ccc([C@H](C)NC(=O)[C@@H]2C[C@@H](O)CN2C(=O)[C@@H](NC(=O)CCCS(=O)(=O)NC(=O)c2nc(N3CCc4cccc(C(=O)Nc5nc6cccnc6s5)c4C3)ccc2-c2cnn(CC3CCCCC3)c2C)C(C)(C)C)cc1 [I-331]	50 to 75%	0.1 to 0.5 µM	0.1 to 1 µM	> 10 µM	–
Cc1ncsc1-c1ccc([C@H](C)NC(=O)[C@@H]2C[C@@H](O)CN2C(=O)[C@@H](NC(=O)C2CCN(c3ccc(S(=O)(=O)NC(=O)c4nc(N5CCc6cccc(C(=O)Nc7nc8ccccc8s7)c6C5)ccc4-c4ccnc(N(C)C(C)C)c4C)cc3)CC2)C(C)(C)C)cc1 [I-332]	> 75%	0.01 to 0.1 µM	0.1 to 1 µM	> 10 µM	–
Cc1ncsc1-c1ccc([C@H](C)NC(=O)[C@@H]2C[C@@H](O)CN2C(=O)[C@@H](NC(=O)CCCCCS(=O)(=O)NC(=O)c2nc(N3CCc4cccc(C(=O)Nc5nc6ccccc6s5)c4C3)ccc2-c2ccnc(N(C)C(C)C)c2C)C(C)(C)C)cc1 [I-333]	50 to 75%	0.1 to 0.5 µM	0.1 to 1 µM	> 10 µM	–
Cc1ncsc1-c1ccc([C@H](C)NC(=O)[C@@H]2C[C@@H](O)CN2C(=O)[C@@H](NC(=O)CN2CCC(CS(=O)(=O)NC(=O)c3nc(N4CCc5cccc(C(=O)Nc6nc7ccccc7s6)c5C4)ccc3-c3cnn(CC4CCCCC4)c3C)CC2)C(C)(C)C)cc1 [I-335]	> 75%	< 0.01 µM	–	1 to 10 µM	< 0.1 µM
Cc1ncsc1-c1ccc(CNC(=O)[C@@H]2C[C@@H](O)CN2C(=O)[C@@H](NC(=O)C2CCN(c3ccc(S(=O)(=O)NC(=O)c4nc(N5CCc6cccc(C(=O)Nc7nc8ccccc8s7)c6C5)ccc4-c4cnn(CC5CCCCC5)c4C)c(F)c3)CC2)C(C)(C)C)cc1 [I-339]	> 75%	< 0.01 µM	< 0.1 µM	1 to 10 µM	–
CCN1CCN(Cc2cc(S(=O)(=O)NC(=O)c3nc(N4CCc5cccc(C(=O)Nc6nc7ccccc7s6)c5C4)ccc3-c3cnn(CC4CCCCC4)c3C)ccc2N2CCC(C(=O)N[C@H](C(=O)N3C[C@H](O)C[C@H]3C(=O)NCc3ccc(-c4scnc4C)cc3)C(C)(C)C)CC2)CC1 [I-341]	> 75%	0.01 to 0.1 µM	0.1 to 1 µM	> 10 µM	–
Cc1ncsc1-c1ccc([C@H](C)NC(=O)[C@@H]2C[C@@H](O)CN2C(=O)[C@@H](NC(=O)C2CCN(c3ccc(S(=O)(=O)NC(=O)c4nc(N5CCc6cccc(C(=O)Nc7nc8ccccc8s7)c6C5)ccc4-c4cnn(CC5CC5)c4C)cc3)CC2)C(C)(C)C)cc1 [I-344]	> 75%	0.01 to 0.1 µM	0.1 to 1 µM	> 10 µM	–

More lines, main results first:

Dmax (BCL-XL)	DC50 (BCL-XL)	IC50 (MOLT-4 cells; MOLT-4, 72 h)	Compound	IC50 (Caki-2 cells)	IC50 (MOLT-4 cells; 72 h)
50 to 75%	0.1 to 0.5 µM	< 0.1 µM	Cc1ncsc1-c1ccc([C@H](C)NC(=O)[C@@H]2C[C@@H](O)CN2C(=O)[C@@H](NC(=O)c2ccc(NC3CCCN(S(=O)(=O)NC(=O)c4nc(N5CCc6cccc(C(=O)Nc7nc8ccccc8s7)c6C5)ccc4-c4cnn(CC5CCCCC5)c4C)C3)cc2)C(C)(C)C)cc1 (stereo partly shown) [I-325]	1 to 10 µM	–
> 75%	0.01 to 0.1 µM	< 0.1 µM	Cc1ncsc1-c1ccc([C@H](C)NC(=O)[C@@H]2C[C@@H](O)CN2C(=O)[C@@H](NC(=O)C2CCN(c3ccc(S(=O)(=O)NC(=O)c4nc(N5CCc6cccc(C(=O)Nc7nc8ccccc8s7)c6C5)ccc4-c4cnn(CC5CCCCC5)c4C)cc3F)CC2)C(C)(C)C)cc1 [I-328]	1 to 10 µM	–
> 75%	0.01 to 0.1 µM	< 0.1 µM	Cc1ncsc1-c1ccc(CNC(=O)[C@@H]2C[C@@H](O)CN2C(=O)[C@@H](NC(=O)C2CCN(c3ccc(S(=O)(=O)NC(=O)c4nc(N5CCc6cccc(C(=O)Nc7nc8ccccc8s7)c6C5)ccc4-c4cnn(CC5CCCCC5)c4C)cc3F)CC2)C(C)(C)C)cc1 [I-329]	1 to 10 µM	–
50 to 75%	0.01 to 0.1 µM	< 0.1 µM	Cc1ncsc1-c1ccc(CNC(=O)[C@@H]2C[C@@H](O)CN2C(=O)[C@@H](NC(=O)C2CN(c3ccc(S(=O)(=O)NC(=O)c4nc(N5CCc6cccc(C(=O)Nc7nc8ccccc8s7)c6C5)ccc4-c4cnn(CC5CCCCC5)c4C)cc3F)C2)C(C)(C)C)cc1 [I-330]	1 to 10 µM	–
> 75%	0.1 to 0.5 µM	1 to 3 µM	Cc1ncsc1-c1ccc([C@H](C)NC(=O)[C@@H]2C[C@@H](O)CN2C(=O)[C@@H](NC(=O)C2CCN(c3ccc(S(=O)(=O)NC(=O)c4nc(N5CCc6cccc(C(=O)Nc7nc8ccccc8s7)c6C5)ccc4-c4cnn(CC5CCCCC5)c4C)cc3COP(=O)(O)O)CC2)C(C)(C)C)cc1 [I-334]	1 to 10 µM	–
> 75%	0.01 to 0.1 µM	1 to 3 µM	Cc1ncsc1-c1ccc([C@H](C)NC(=O)[C@@H]2C[C@@H](O)CN2C(=O)[C@@H](NC(=O)N2CC(CN3CCC(S(=O)(=O)NC(=O)c4nc(N5CCc6cccc(C(=O)Nc7nc8ccccc8s7)c6C5)ccc4-c4cnn(CC5CCCCC5)c4C)CC3)C2)C(C)(C)C)cc1 [I-336]	> 10 µM	–
> 75%	< 0.01 µM	< 0.1 µM	Cc1ncsc1-c1ccc(CNC(=O)[C@@H]2C[C@@H](O)CN2C(=O)[C@@H](NC(=O)CCCc2cccc(S(=O)(=O)NC(=O)c3nc(N4CCc5cccc(C(=O)Nc6nc7ccccc7s6)c5C4)ccc3-c3cnn(CC4CCCCC4)c3C)c2)C(C)(C)C)cc1 [I-337]	> 10 µM	–
> 75%	0.1 to 0.5 µM	0.1 to 1 µM	Cc1ncsc1-c1ccc(CNC(=O)[C@@H]2C[C@@H](O)CN2C(=O)[C@@H](NC(=O)CCc2ccc(S(=O)(=O)NC(=O)c3nc(N4CCc5cccc(C(=O)Nc6nc7ccccc7s6)c5C4)ccc3-c3cnn(CC4CCCCC4)c3C)cn2)C(C)(C)C)cc1 [I-342]	> 10 µM	–
> 75%	0.01 to 0.1 µM	< 0.1 µM	Cc1ncsc1-c1ccc([C@H](C)NC(=O)[C@@H]2C[C@@H](O)CN2C(=O)[C@@H](NC(=O)C2CN(c3ccc(S(=O)(=O)NC(=O)c4nc(N5CCc6cccc(C(=O)Nc7nc8ccccc8s7)c6C5)ccc4-c4cnn(CC5CCCCC5)c4C)cc3)C2)C(C)(C)C)cc1 [I-343]	1 to 10 µM	–

From patent US20250197387A1, “BCL-XL DEGRADERS AND USES THEREOF” (Kymera Therapeutics, Inc., priority 2021, published 2025)
